Patent US10836734B2, “Spiroquinone derivative compound, production method thereof, and pharamaceutical composition for preventing or treating neurological disorders which contains same as active ingredient” (GACHON UNIVERSITY OF INDUSTRY-ACADEMIC COOPERATION …, priority 2016, dated 2020)

Experiments:
[1] = target: acetylcholine esterase (eeAChE, EC 3.1.1.7) (Electrophorus electricus, UniProt O42275); experiment: Acetylcholine esterase inhibition activity (ACh quantification colorimetric assay kit); format: biochemical; conditions: read-out: Residual activity of acetylcholine esterase (%); for remaining activity at 10 µM: 10 μM compound; for remaining activity at 30 µM: 30 μM compound
acetylcholine esterase (eeAChE, EC 3.1.1.7), sequence (O42275 24-633): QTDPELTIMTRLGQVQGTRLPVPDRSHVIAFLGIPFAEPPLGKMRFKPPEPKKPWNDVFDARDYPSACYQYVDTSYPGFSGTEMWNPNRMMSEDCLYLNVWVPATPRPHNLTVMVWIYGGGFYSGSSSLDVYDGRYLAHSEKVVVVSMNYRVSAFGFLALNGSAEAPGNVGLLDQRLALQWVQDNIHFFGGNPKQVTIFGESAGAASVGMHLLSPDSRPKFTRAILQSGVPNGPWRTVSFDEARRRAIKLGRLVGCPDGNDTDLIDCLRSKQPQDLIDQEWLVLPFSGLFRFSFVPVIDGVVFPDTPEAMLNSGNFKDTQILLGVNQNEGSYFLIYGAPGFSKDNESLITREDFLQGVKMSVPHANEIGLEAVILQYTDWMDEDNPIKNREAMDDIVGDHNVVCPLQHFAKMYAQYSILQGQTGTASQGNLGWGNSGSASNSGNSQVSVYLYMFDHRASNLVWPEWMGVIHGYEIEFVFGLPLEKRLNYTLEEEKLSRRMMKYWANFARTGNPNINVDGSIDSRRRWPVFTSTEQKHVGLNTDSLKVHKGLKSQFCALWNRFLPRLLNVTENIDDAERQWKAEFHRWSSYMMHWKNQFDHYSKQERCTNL
Procedure: Particularly, a quantitative kit (ACh quantification colorimetric assay kit from BioVision) was prepared in order to quantify acetylcholine esterase (eeAChE, EC 3.1.1.7) and acetylcholine chloride (ACh) of Electrophorus electricus and acetylcholine. To measure the enzyme inhibition activity of the compound of the example of the invention, the following experiment was performed based on the standardized method of the manufacturer of the Ach kit (Draczkowski, P. et al. Bba-Gen Subjects 1860, 967-974, doi:10.1016/j.bbagen.2015.11.006 (2016)).
First, acetylcholine esterase (eeAChE, EC 3.1.1.7) was dissolved in […] Tris-HCL buffer at the concentration of 5 μM. Acetylcholine chloride was dissolved in 20 mM Tris-HCL buffer, resulting in the preparation of a Tris-HCL aqueous solution containing 10 μM acetylcholine chloride. The compound of the example was prepared in different concentrations of 10 μM and 30 μM. The prepared acetylcholine chloride solution and the compound solution were mixed in 20 μM acetylcholine esterase. 20 minutes and 30 minutes after mixing, the color change of the quantitative kit was measured at 570 nm in order to evaluate the inhibitory effect of the compound particularly to inhibit acetylcholine esterase that decomposes acetylcholine into choline.
All the experiments were repeated at least twice, from which the mean values and the standard deviations were calculated.

[2] = tested on: murine microglial BV-2 cells; experiment: Quantification of nitrite generation in LPS treated nerve cell line; format: cell-based; conditions: Mus musculus; LPS treated BV-2 cells; FIG. 5; read-out: IC50 for nitric oxide
Procedure: Particularly, in order to quantify the nitrite generation in the LPS treated nerve cell line, nitrite generated from nitric oxide secreted therein was quantified. With the quantified nitrite, the inhibition of microglial activation and the neuron protection effect thereby were examined. The nerve cell line (BV2) was treated with LPS ([…]), and then treated with the compound of the present invention at different concentrations of 0.01 μM, 0.1 μM and 1 μM, or 1 μM, 5 μM and 10 μM (Con: DMSO treated group (not treated with the compound of the invention and LPS), LPS: LPS treated group ([…])).
Further, IC50 was calculated from the quantification of nitric oxide measured by concentration gradient in FIGS. 1 and 3, and the results are shown in FIG. 5.

`O=C1C=CC2(C=C1)OCC(Cc1ccccc1)C(=O)N2c1cccnc1` (stereo not drawn) [Example 19, 3-benzyl-5-(pyridine-3-yl)-1-oxa-5-azaspiro[5,5]undeca-7,10-diene-4,9-dione] was tested, and the remaining activity at 10 µM [1] was 66.1% and the remaining activity at 30 µM [1] was 8.07%.
In the case of `CC1COC2(C=CC(=O)C(F)=C2)N(c2ccccc2)C1=O` (stereo not drawn) [Example 22, 3-methyl-8-fluoro-5-phenyl-1-oxa-5-azaspiro[5,5]undeca-7,10-diene-4,9-dione], the remaining activity at 10 µM [1] is reported as 51.6% and the remaining activity at 30 µM [1] is reported as 2.47%.
`CC1COC2(C=CC(=O)C=C2)N(c2ccccc2)C1=O` (stereo not drawn) [Example 2, 3-methyl-5-phenyl-1-oxa-5-azaspiro[5,5]undeca-7,10-diene-4,9-dione] was tested, and the remaining activity at 10 µM [1] was 29.7% and the remaining activity at 30 µM [1] was 7.03%.
`O=C1C=CC2(C=C1)OCC(Cc1ccccc1)C(=O)N2c1ccccc1` (stereo not drawn) [Example 6, 3-benzyl-5-phenyl-1-oxa-5-azaspiro[5,5]undeca-7,10-diene-4,9-dione] showed a remaining activity at 10 µM [1] of 40.2% and a remaining activity at 30 µM [1] of 6.07%.
`C=CCC1COC2(C=CC(=O)C=C2)N(c2ccccc2)C1=O` (stereo not drawn) [Example 3, 3-allyl-5-phenyl-1-oxa-5-azaspiro[5,5]undeca-7,10-diene-4,9-dione] gave a remaining activity at 10 µM [1] of 30.3% and a remaining activity at 30 µM [1] of -2.03%.
For `CC1=CC2(C=CC1=O)OCC(Cc1ccccc1)C(=O)N2c1ccccc1` (stereo not drawn) [Example 28, 3-benzyl-8-methyl-5-phenyl-1-oxa-5-azaspiro[5,5]undeca-7,10-diene-4,9-dione], the remaining activity at 10 µM [1] was 55.4% and the remaining activity at 30 µM [1] was 3.08%.
Compound `CN1C(=O)C(Cc2ccccc2)COC12C=CC(=O)C=C2` (stereo not drawn) [Example 33, 3-benzyl-5-methyl-1-oxa-5-azaspiro[5,5]undeca-7,10-diene-4,9-dione] has a remaining activity at 10 µM [1] of 50.5% and a remaining activity at 30 µM [1] of 2.08%.
Compound `O=C1C=CC2(C=C1F)OCC(Cc1ccccc1)C(=O)N2c1ccccc1` (stereo not drawn) [Example 24, 3-benzyl-8-fluoro-5-phenyl-1-oxa-5-azaspiro[5,5]undeca-7,10-diene-4,9-dione] has a remaining activity at 10 µM [1] of 35.6% and a remaining activity at 30 µM [1] of 8.89%.
In the case of `C=CCC1COC2(C=CC(=O)C(F)=C2)N(c2ccccc2)C1=O` (stereo not drawn) [Example 23, 3-allyl-8-fluoro-5-phenyl-1-oxa-5-azaspiro[5,5]undeca-7,10-diene-4,9-dione], the remaining activity at 10 µM [1] is reported as 38.1% and the remaining activity at 30 µM [1] is reported as 5.64%.
Work on `O=C1C=CC2(C=C1)OCC(Cc1ccc(C(F)(F)F)cc1)C(=O)N2c1ccccc1` (stereo not drawn) [Example 11, 3-(4-trifluoromethyl-benzyl)-5-phenyl-1-oxa-5-azaspiro[5,5]undeca-7,10-diene-4,9-dione] yielded a remaining activity at 10 µM [1] of 69.4% and a remaining activity at 30 µM [1] of 22.1%.
`O=C1C=CC2(C=C1)OCC(Cc1cc(C(F)(F)F)cc(C(F)(F)F)c1)C(=O)N2c1ccccc1` (stereo not drawn) [Example 14, 3-(3,5-ditrifluoromethyl-benzyl)-5-phenyl-1-oxa-5-azaspiro[5,5]undeca-7,10-diene-4,9-dione] showed an IC50 [2] of about 300 nM.
For `CC1=CC2(C=CC1=O)OCC(C)C(=O)N2c1ccccc1` (stereo not drawn) [Example 25, 3,8-dimethyl-5-phenyl-1-oxa-5-azaspiro[5,5]undeca-7,10-diene-4,9-dione], the remaining activity at 10 µM [1] was 20.9% and the remaining activity at 30 µM [1] was 8.15%.
`O=C1C=CC2(C=C1)OCC(Cc1ccc(F)cc1)C(=O)N2c1ccccc1` (stereo not drawn) [Example 7, 3-(4-fluoro-benzyl)-5-phenyl-1-oxa-5-azaspiro[5,5]undeca-7,10-diene-4,9-dione] was tested, and the remaining activity at 10 µM [1] was 46.7% and the remaining activity at 30 µM [1] was 4.74%.
Compound `O=C1C=CC2(C=C1)OCC(Cc1ccc(Br)cc1)C(=O)N2c1ccccc1` (stereo not drawn) [Example 10, 3-(4-bromo-benzyl)-5-phenyl-1-oxa-5-azaspiro[5,5]undeca-7,10-diene-4,9-dione] has a remaining activity at 10 µM [1] of 27.3% and a remaining activity at 30 µM [1] of 12.9%.
